Reference: patent US11505531B2 (SOUTHERN RESEARCH INSTITUTE, priority 2018, dated 2022)

Columns and labels:
TGF-β mediated by TSP-1 = assay: Cell-based assay of inhibition of TGF-β mediated by TSP-1; design: species or system human; details: for inhibition at 0.01 µM / inhibition at 0.1 µM / inhibition at 1 µM / IC50: Homo sapiens; for inhibition at 0.01 µM: At 10 nM; for inhibition at 0.01 µM / inhibition at 0.1 µM / inhibition at 1 µM: read-out: Inhibition of TGF-β mediated by TSP-1 cell-based assay at [Inhibitor]; for inhibition at 0.1 µM: At 100 nM; for IC50: assay not stated, given only for compounds tested in the cell-based assay
Procedure: To specifically assess activity of compounds in liver cell specific assays, two different assays were used. In the first, human hepatic stellate cells were incubated overnight in low serum media to condition the media with secreted latent […]. Purified TSP1 either preincubated with compounds or not will be added to cultures and then conditioned media harvested to assess TGF-β biological activity using the R&D Systems ELISA as above. Hepatic stellate cells will be purchased from commercial sources. Although hepatic stellate cells are the primary drivers of liver fibrosis, conditions which drive liver fibrosis can induce hepatocyte TSP-1 expression which can then have paracrine effects on controlling TGF-β activation in hepatic stellate cells. Furthermore, TGF-β can negatively impact hepatocyte regeneration following injury. Therefore, the ability of compounds to block TSP-1 activation of latent TGF-β will also be assessed in cultured primary human hepatocytes following the protocol described for the hepatic stellate cells. Similar approaches have successfully been used to screen compounds which inhibit human myeloma cell derived latent TGF-β activation by TSP-1 (Lu et al. (2016) Am J Pathol 186:678-690).

[1] = biological target: T1, TGF-β mediated by TSP-1 (purified human platelet TSP-1 + recombinant latent TGF-β1) (Homo sapiens, UniProt P07996); assay: In vitro ELISA assay: TSP-1 incubated with compound, then with recombinant latent TGF-β1; active TGF-β detected; type: biochemical; details: read-out: Inhibition of TGF-β mediated by TSP-1 in vitro Elisa assay at [Inhibitor]; for inhibition at 0.0001 µM: At 100 pM
T1 construct: purified human platelet TSP-1 was incubated with compounds; tissue R&D Systems (latent TGF-β1 only); host or cells: human platelets (TSP-1)
T1 sequence (P07996 19-1170): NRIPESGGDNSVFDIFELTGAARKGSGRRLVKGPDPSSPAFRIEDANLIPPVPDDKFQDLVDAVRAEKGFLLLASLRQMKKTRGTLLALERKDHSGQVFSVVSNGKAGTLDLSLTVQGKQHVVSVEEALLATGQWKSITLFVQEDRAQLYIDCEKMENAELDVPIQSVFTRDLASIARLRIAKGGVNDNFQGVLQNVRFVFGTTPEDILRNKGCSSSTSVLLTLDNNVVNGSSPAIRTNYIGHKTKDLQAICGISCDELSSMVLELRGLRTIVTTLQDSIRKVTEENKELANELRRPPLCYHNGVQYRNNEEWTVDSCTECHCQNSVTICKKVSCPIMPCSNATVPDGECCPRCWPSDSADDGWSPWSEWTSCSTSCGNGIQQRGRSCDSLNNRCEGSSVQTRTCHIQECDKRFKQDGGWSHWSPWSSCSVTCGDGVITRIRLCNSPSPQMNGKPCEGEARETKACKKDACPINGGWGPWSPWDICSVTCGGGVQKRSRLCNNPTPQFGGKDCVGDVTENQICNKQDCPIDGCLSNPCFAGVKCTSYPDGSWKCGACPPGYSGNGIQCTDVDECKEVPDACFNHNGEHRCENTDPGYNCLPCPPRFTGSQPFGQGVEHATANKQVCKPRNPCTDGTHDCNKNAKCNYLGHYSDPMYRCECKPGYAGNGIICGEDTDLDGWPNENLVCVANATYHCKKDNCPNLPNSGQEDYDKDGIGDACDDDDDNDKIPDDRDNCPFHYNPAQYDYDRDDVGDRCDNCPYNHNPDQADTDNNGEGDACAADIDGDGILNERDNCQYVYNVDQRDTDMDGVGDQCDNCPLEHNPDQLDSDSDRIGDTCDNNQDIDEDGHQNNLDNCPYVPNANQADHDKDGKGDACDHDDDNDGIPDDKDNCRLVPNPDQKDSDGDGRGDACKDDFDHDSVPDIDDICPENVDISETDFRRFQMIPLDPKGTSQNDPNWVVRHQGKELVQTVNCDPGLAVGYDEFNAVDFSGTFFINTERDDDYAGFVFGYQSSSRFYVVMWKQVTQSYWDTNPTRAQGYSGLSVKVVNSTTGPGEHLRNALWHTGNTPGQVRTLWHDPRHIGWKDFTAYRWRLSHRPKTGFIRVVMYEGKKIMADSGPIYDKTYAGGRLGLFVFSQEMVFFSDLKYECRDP
Procedure: For initial screening, an ELISA-based screening assay was used in which purified human platelet TSP-1 was incubated with compounds and then incubated with recombinant latent TGF-β1 (purchased from R&D Systems). Activity is measured in a commercially available ELISA which detects only active TGF-β (R &D Systems). Activity in the presence of compounds is compared to activity in TSP-1+latent TGF-β samples without inhibitory compounds (Lu et al. (2016) Am J Pathol 186:678-690).

MSCs = assay: Osteoblast differentiation by MSCs under osteogenic conditions (alkaline phosphatase staining, Runx2 RT-PCR); type: cell-based; details: osteogenic media, TSP1 10 nM + LSKL 25 μM, 20 days
Procedure: Referring to FIG. 1A, MSCs were grown to confluence in basal (control) media. Cells were treated with control growth media, osteogenic media, or osteogenic media with TGF-β (5 ng/mL) or stripped TSP1 (10 nM), TSP1+LSKL (25 μM), TSP1+SLLK (25 μM control peptide), or TSP1+anti-TGF-β (5 μg/mL). Cultures were fed daily for 20 days. Alkaline phosphatase staining is representative of triplicate wells.
Referring to FIG. 1B, cells were treated every 2 days for 20 days with MSC growth media (control) or osteogenic media with TGF-β (5 ng/mL) or TSP1 (10 nM)±daily treatment with 25 μM LSKL or SLLK peptides. RNA isolated from cells was used for RT-PCR analysis of Runx2 expression. Samples were run in duplicate and each experimental treatment in triplicate.

[2] = cited from earlier work
phospho-Smad 2 = assay: Phospho-Smad 2 staining of tibiae from mice injected with CAG MM cells; type: in vivo; details: 4 weeks of treatment
Procedure: Referring to FIG. 3A-C, at 4 weeks of treatment, tibiae from mice injected with CAG MM cells were fixed and stained with antibody to phosphor-Smad 2. Left panels are from 2 different saline treated mice and the right panels are from LSKL-treated mice. Pixels of brown staining were quantified in 4 fields per animal. 5-6 animals per group were analyzed. Data are the percent area exceeding the threshold for positive staining (FIG. 3A). […] P=0.004.

CAG-heparanase MM cells = assay: PAI-1 promoter luciferase reporter assay of conditioned media of TSP1-treated CAG-heparanase MM cells; type: cell-based, human; details: cells treated with 67 nM TSP1
Procedure: Referring to FIG. 4B, CAG-heparanase MM cells were treated with 67 nM TSP1 and conditioned media were assessed for TGF-β activity using PAI-1 promoter luciferase reporter assay. There is ˜[…] TGF-β in the added TSP1 and LSKL blocks 80% of the CAG-heparanase MM cell generated TGF-β activity.

[3] = 30 mg/kg i.p., 3 times weekly, 15 weeks; cited from earlier work
CAG MM cells = assay: Phospho-Smad 2 immunoblot in TSP1-treated CAG MM cells; type: cell-based, human; details: 30 nM TSP1 for 6 hrs ± LSKL
Procedure: Referring to FIG. 4A, CAG MM cells were incubated with 30 nM TSP1 for 6 hrs±LSKL or SLLK. Cell lysates were immunoblotted for phosphor-Smad 2. Blots were stripped and reprobed for total Smad 2/3 and GAPDH. Results are normalized to GAPDH (untreated controls=1). LSKL reduces TSP1 induced treatment or luciferase activity in cells treated with active TGF-β (not shown).

CAG human myeloma cells = assay: SCID-tibia MM model, tumor burden (bioluminescence, serum Ig kappa); type: in vivo, SCID mice; details: LSKL 30 mg/kg/day by subcutaneous osmotic pump, 2 and 4 weeks
Procedure: Referring to FIG. 2A and FIG. 2B, CAG human myeloma cells were injected into the intratibial marrow space of SCID mice. After 2 weeks, tumors were imaged by bioluminescence and serum 1 g kappa levels measured. Mice were randomized to equalize 1 g kappa levels. Osmotic pumps were implanted subcutaneously to deliver saline or LSKL peptide (30 mg/kg/day) (n=10/group). Tumors were imaged and serum 1 g kappa levels measured at 2 and 4 weeks of treatment. Data are means±SEM. Bioluminescence; *p=0.019 ANOVA, serum kappa; p=0.037, t-test.

Compound | inhibition at 0.01 µM (TGF-β mediated by TSP-1) | inhibition at 0.1 µM (TGF-β mediated by TSP-1) | inhibition at 1 µM (TGF-β mediated by TSP-1) | IC50 (TGF-β mediated by TSP-1) | further results
CC1(C)NC(=O)[C@H](CCCCN)NC1=O [Compound 2, (S)-6-(4-aminobutyl)-3,3-dimethylpiperazine-2,5-dione] | 38% | 71% | 76% |  | inhibition at 10 pM [1]: 73%; inhibition at 50 pM [1]: 91%; inhibition at 0.0001 µM [1]: 89%
CC1(C)NC(=O)[C@@H](CCCCN)NC1=O [Compound 10, (R)-6-(4-aminobutyl)-3,3-dimethylpiperazine-2,5-dione] |  |  |  |  | Inhibition of TGF-β mediated by TSP-1 cell-based assay (result in words) (TGF-β mediated by TSP-1): Inactive
Nc1ccc(C[C@@H]2NC(=O)CNC2=O)cc1 [Compound 3, (S)-3-(4-aminobenzyl)piperazine-2,5-dione] | 13% | 32% | 75% |  | inhibition at 10 pM [1]: 66%; inhibition at 50 pM [1]: 68%; inhibition at 0.0001 µM [1]: 90%
CC1(C)NC(=O)[C@H](Cc2ccc(C(N)=O)cc2)NC1=O [Compound 11, (S)-4-((5,5-dimethyl-3,6-dioxopiperazin-2-yl)methyl)benzamide] | 25% | 39% | 40% |  | 
NC(=O)c1ccc(C[C@@H]2NC(=O)C3(CCCC3)NC2=O)cc1 [Compound 13, (S)-4-((7,10-dioxo-6,9-diazaspiro[4.5]decan-8-yl)methyl)benzamide] | 8% | 24.6% | 19.6% |  | 
Nc1ccc(C[C@@H]2NC(=O)C3(CCCCC3)NC2=O)cc1 [Compound 15, (S)-3-(4-aminobenzyl)-1,4-diazaspiro[5.5]undecane-2,5-dione] | 49% | 85% | 94% |  | 
NCCCC[C@@H]1NC(=O)CNC1=O [Compound 1, (S)-3-(4-aminobutyl)piperazine-2,5-dione] | 38% | 59% | 74.5% |  | inhibition at 10 pM [1]: -67%; inhibition at 50 pM [1]: -4%; inhibition at 0.0001 µM [1]: 37%
NCCC[C@@H]1NC(=O)C2(CCCC2)NC1=O [Compound 14, (S)-8-(3-aminopropyl)-6,9-diazaspiro[4.5]decane-7,10-dione] | 54% | 85% | 90% |  | 
NC(=O)c1ccc(C[C@@H]2NC(=O)CNC2=O)cc1 [Compound 12, (S)-4-((3,6-dioxopiperazin-2-yl)methyl)benzamide] | 40% | 65.6% | 68% |  | 
Nc1ccc(C[C@@H]2NC(=O)C3(CCC3)NC2=O)cc1 [Compound 8, (S)-7-(4-aminobenzyl)-5,8-diazaspiro[3.5]nonane-6,9-dione] | 62% | 89% | 92% | 4 nM | 
Nc1ccc(C[C@@H]2NC(=O)C3(CCCC3)NC2=O)cc1 [Compound 9, (S)-8-(4-aminobenzyl)-6,9-diazaspiro[4.5]decane-7,10-dione] | 40% | 92% | > 100% | 11 nM | 
CC1(C)NC(=O)[C@H](Cc2ccc(N)cc2)NC1=O [Compound 4, (S)-6-(4-aminobenzyl)-3,3-dimethylpiperazine-2,5-dione] | 80% | 78% | 83% | 1 nM | 
CC1(C)NC(=O)[C@H](Cc2cccc(CN)c2)NC1=O [Compound 6] | 75% | 96% | 97% | 1 nM | 
NCCCC[C@@H]1NC(=O)C2(CCCC2)NC1=O [Compound 7] | 72% | 89% | 92% | 0.85 nM | 
LSKL |  |  |  |  | osteoblast differentiation by MSCs (MSCs): Increases Osteoblast Differentiation; plasma stability half-life [2]: 2.1 min; phospho-Smad 2 in the bone marrow (phospho-Smad 2): Reduces Phospho-Smad 2; block of CAG-heparanase MM cell generated TGF-β activity (CAG-heparanase MM cells): 80%; necropsy findings after chronic treatment [3]: no inflammation, no tumors in all major organs, and no impairment of wound healing; TGF-β activity (phospho-Smad 2) in CAG MM cells (CAG MM cells): Reduces TGF-B Activity; MM tumor burden (CAG human myeloma cells): Reduces MM Tumor Burden
